Test results as given in patent publication US11459546B2, “Method for producing somatic cell, somatic cell, and composition” (Kyoto Prefectural Public University Corporation, priority 2016, dated 2022).

Test system: Human skin fibroblasts
Test: Direct transformation from human fibroblast to brown adipocyte (Example B)
Format: cell-based
Parameters: key: the mark “++++” indicates that almost all of the fibroblasts were transformed into brown adipocytes; +++: the larger the number of the marks “+” is, the higher the transformation efficiency is; ++: the larger the number of the marks “+” is, the higher the transformation efficiency is; the larger the number of the marks “+” is, the higher the transformation efficiency is; The mark “−” indicates that the fibroblasts were not transformed into brown adipocytes
Conditions: fibroblast of subject; judged from UCP1 immunostaining and cell states, FIG. 4 to FIG. 8
Description: Human skin fibroblasts were purchased from DS Pharma Biomedical Co., Ltd. Cell information is described in the following table.
About 1.5×10^5 cells were seeded on a 35 mm dish containing a high-glucose DMEM medium (11995-065, Gibco, MA, USA) to which 10% fetal bovine serum (FBS) (HyClone, Utah, USA) and penicillin/streptomycin (Gibco) were added.
After each of the human fibroblasts reached 80-90% confluence, the medium was changed to start direct transformation into the brown adipocyte. The adipocyte medium for use was prepared by adding an additive reagent containing ascorbic acid, biotin, pantothenic acid, triiodothyronine, octanoic acid, insulin, dexamethasone, IBLMX (3-isobutyl-1-methylxanthine), FBS and penicillin/streptomycin (MK425, Takara Bio Inc.) to a high-glucose DMEM medium (043-30085, Wako Pure Chemical Industries, Ltd.). […]
Immunocytochemistry was performed in accordance with a previous report (Dai P, et al. J Clin Biochem Nutr. 2015; 56 (3): 166-70). […] All images were acquired using a fluorescence microscope (Axio Vert. A1, Carl Zeiss, Oberkochen, Germany). […]
The efficiencies of transformation into the adipocyte-like cells with various combinations of the compounds were evaluated from the results shown in FIG. 4 to FIG. 8, and the results are shown in the following table. […]

CN(CCOc1ccc(CC2SC(=O)NC2=O)cc1)c1ccccn1 (stereo not shown) [Ro only, Rosiglitazone]
Efficiency (transformation into the adipocyte-like cells): −
